Laboratory results from patent US20230210116A1, “HONEYBEE REPELLENT” (EARTH CORPORATION, priority 2020, published 2023).
Structures can show the parent of a compound that is named as a salt.

Assays:
stink bugs = experiment: Test for Confirmation of Stink Bug Behaviors against Active Ingredients 1, 2, 3 (treated filter paper); assay type: in vivo, southern green stink bugs
Source text: The test samples in “Test for Confirmation of Honeybee Repelling Effect 1” above were used.
A liquid calcium carbonate/ethanol dispersion was applied on the entire interior wall of a KP cup (100 mm in diameter×90 mm in height) and air-dried, after which a filter paper (90 mm in diameter) was fixed on the bottom face of the KP cup using double-sided tape. A different filter paper (90 mm in diameter) was cut along its diameter and the resulting semicircle-shaped paper was uniformly treated with 400 μL of each test sample or sample for correction, and then placed over the filter paper fixed on the aforementioned bottom face of the KP cup by allowing the circular parts to overlap, for use as a testing device.
The “repelling rate Y” and “corrected repelling rate Z” were calculated from the above “time A (sec)” and “time B (sec)” using the calculation formula below. For the “repelling rate of sample for correction” used to calculate the “corrected repelling rate Z,” the repelling rate of each of the samples for correction above (ethanol alone or water alone being a solvent for the active ingredient) was used.
Corrected repelling rate Z (%)={Repelling rate of test sample−Repelling rate of sample for correction}/{100−Repelling rate of sample for correction}×100
For the test samples, the test samples in “Test for Confirmation of Honeybee Repelling Effect 2” above were used.

honeybees = experiment: Test for Confirmation of Honeybee Repelling Effect 1, 2, 3 (feeding station with 40% sugar water); assay type: in vivo; conditions: for Corrected repelling rate (%) Honeybees: Test 3, 5 mL; for Corrected repelling rate R (%): honeybees
Source text: The following were used as the test samples for Examples: 2% by weight per volume ethanol solutions of octane (a-1), tetradecane (a-2), heptadecane (a-3), nonadecane (a-4), 2-acetylfuran (b-1), 5-methyl-2-furaldehyde (b-2), furfural (b-3), furaneol (c-1), 2-acetylpyrrole (d-1), 1-benzylpyrrole (d-2), 1-octanol (e-1), 1-dodecanol (e-2), and 1-octadecanol (e-3), respectively; and 2% by weight per volume aqueous solutions of furfuryl alcohol (b-4), sotolon (c-2), and α-angelicalactone (c-3), respectively.
The following were used as the test samples for Comparative Examples: 2% by weight per volume ethanol solutions of eicosane (carbon number 20, p-1), heneicosane (carbon number 21, p-2), 2-methyloctane (branched alkane, p-3), tributyl o-acetylcitrate (p-4), and 1-methylpyrrole (p-5), respectively; and 2% by weight per volume aqueous solutions of 2-methyltetrahydrofuran-3-one (p-6) and acetic acid (p-7), respectively.
Ethanol alone and water alone were used as samples for correction.
The cotton pads 13 were impregnated with 40% sugar water (80 g), after which disposable wooden chopsticks 15 (80 mm in length) were placed over the cotton pads on the lid surface as “landing areas,” for use as “test insect (honeybee) feeding station 1” 10.
A nest box of test insects (honeybees) (1 colony: approx. 6,000 bees) was placed at the center of a glass hothouse (bottom face: 5 m×10 m, height (highest part): 3 m, temperature: 25° C.), and the aforementioned “test insect (honeybee) feeding station 1” was installed at a location 2 meters away from the nest box.
After confirming that at least five test insects (honeybees) were feeding at the above “test insect (honeybee) feeding station 1” installed in the hothouse, test 1 was conducted to measure the “approaching count (Mz)” and “landing count (My)” and calculate the “landing rate (Mx).”
Next, the “test insect (honeybee) feeding station 1” installed in the hothouse was replaced with each “test insect (honeybee) feeding station 2” which was let to stand still for 5 minutes, after which test 2 was conducted to measure the “approaching count (Nz)” and “landing count (Ny)” and calculate the “landing rate (Nx).”
Approaching count: Total number of times a honeybee has approached within 25 cm of the cotton wools at the feeding station during 5 minutes
Landing count: Total number of honeybees that have remained for at least 1 second on the cotton pads at the feeding station during 5 minutes
Landing rate (%): (Landing count/Approaching count)×100
The “repelling rate Q” and “corrected repelling rate R” were calculated from the above “landing rates” using the calculation formula below. For the “repelling rate of sample for correction” used to calculate the “corrected repelling rate R,” the repelling rate of each of the samples for correction above (ethanol alone or water alone being a solvent for the active ingredient) was used.
Repelling rate Q (%)={(Mx)−(Nx)}/(Mx)×100
Corrected repelling rate R (%)={Repelling rate of test sample−Repelling rate of sample for correction}/{100−Repelling rate of sample for correction}×100
The following were used as the test samples for Examples: 0.1% by weight per volume ethanol solutions of 3-methyl-2-butanol (e-4), carvacrol (x-1), isoeugenol (x-2), cinnamyl alcohol (x-3), diacetone alcohol (x-4), α-amylcinnamaldehyde (x-5), 3-methyl-2-butenal (x-6), valeraldehyde (x-7), ethyl cinnamate (x-8), methyl cinnamate (x-9), ethyl isovalerate (x-10), isoamyl formate (x-11), 5-ethyl-2-methylpyridine (x-12), 2-(3-phenylpropyl)pyridine (x-13), 2,6-dimethylpyridine (x-14), ß-ionone (x-15), 2-acetylthiazole (x-16), butylamine (x-17), and citronella oil (x-18), respectively; and a 0.1% by weight per volume aqueous solution of (3-amino-3-carboxypropyl)dimethylsulfonium chloride (x-19).

[1] = Test 3, 0.1% by weight per volume solution, 400 μL
[2] = 0.1% by weight per volume solution
[3] = Test 2, 0.1% by weight per volume solution, 400 μL
[4] = Test 2, 0.1% by weight per volume solution, 5 mL (active ingredient 5 mg)
[5] = Test 1, 2% by weight per volume solution, 400 μL on filter paper, 30 minutes
[6] = Test 1, 2% by weight per volume solution, 5 mL sprayed (active ingredient 0.1 g)
[7] = Test 1, 2% by weight per volume solution

Compound | repelling of stink bugs and other injurious insects to be exterminated (in words) (stink bugs) | Corrected repelling rate (%) Stinkbugs (stink bugs; [1]) | Corrected repelling rate (%) Honeybees (honeybees; [2]) [%] | further results
CC(=O)OCC=Cc1ccccc1 [y-18, cinnamyl acetate] | not repelling stink bugs | ∘ | 69.0 | –
Cc1ccc(C(C)C)cc1O [x-1, carvacrol] | – | – | – | Corrected repelling rate (%) Stinkbugs (stink bugs; [3]): <0%; Corrected repelling rate R (%) (honeybees; [4]): 80.6%
OCC=Cc1ccccc1 [x-3, cinnamyl alcohol] | – | – | – | Corrected repelling rate (%) Stinkbugs (stink bugs; [3]): <0%; Corrected repelling rate R (%) (honeybees; [4]): 98.2%
CCCCCO [e-7, 1-pentanol] | not repelling stink bugs | ∘ | 68.9 | –
CCCC(=O)OCCC(C)C [y-51, isoamyl butyrate] | not repelling stink bugs | – | – | Corrected repelling rate (%) Stinkbugs (stink bugs; Test 3, 2.0% by weight per volume solution, 400 μL): ∘; Corrected repelling rate (%) Honeybees (honeybees; 2.0% by weight per volume solution): 75.9%
COC(=O)c1ccccc1N [y-33, methyl anthranilate] | not repelling stink bugs | ∘ | 51.0 | –
C=CCOC(=O)CCC1CCCCC1 [y-43, allyl cyclohexanepropionate] | not repelling stink bugs | ∘ | 90.4 | –
C=CCOC(=O)Cc1ccccc1 [y-44, allyl phenylacetate] | not repelling stink bugs | ∘ | 73.6 | –
CC1=C(O)C(=O)C(C)O1 (stereo not drawn) [c-1, furaneol] | – | – | – | Corrected repelling rate (%) Stinkbugs (stink bugs; [5]): <0%; Corrected repelling rate R (%) (honeybees; [6]): 44.0%
CC(=O)/C=C/C1=C(C)CCCC1(C)C [x-15, ß-ionone] | – | – | – | Corrected repelling rate (%) Stinkbugs (stink bugs; [3]): <0%; Corrected repelling rate R (%) (honeybees; [4]): 83.7%
CCCCCCCCCCCC(=O)OCCCC [y-37, butyl laurate] | – | ∘ | 33.0 | –
CCCCN [x-17, butylamine] | – | – | – | Corrected repelling rate (%) Stinkbugs (stink bugs; [3]): <0%; Corrected repelling rate R (%) (honeybees; [4]): 83.4%
CC(=O)OC/C=C(\C)CCC=C(C)C [y-27, geranyl acetate] | not repelling stink bugs | ∘ | 68.0 | –
CCCCCCCCCCCCCC [a-2, tetradecane] | – | – | – | Corrected repelling rate (%) Stinkbugs (stink bugs; [5]): <0%; repelling effect / repelled behaviors of honeybees (in words) (honeybees; [7]): excellent repelling effect; Corrected repelling rate R (%) (honeybees; [6]): 96.5%
CC1=CCC(=O)O1 [c-3, α-angelicalactone] | – | – | – | Corrected repelling rate (%) Stinkbugs (stink bugs; [5]): <0%; repelling effect / repelled behaviors of honeybees (in words) (honeybees; [7]): excellent repelling effect; Corrected repelling rate R (%) (honeybees; [6]): 31.7%
C=CCCCCCCCCC(=O)OCC [y-39, ethyl 10-undecenoate] | not repelling stink bugs | ∘ | 75.8 | –
CC/C=C/C=O [y-10, trans-2-pentenal] | not repelling stink bugs | ∘ | 55.4 | –
COc1cc(OC)cc(C(=O)O)c1 [y-76, 3,5-dimethoxybenzoic acid] | – | ∘ | 22.1 | –
C1CCNC1 [y-91, pyrrolidine] | – | – | 61.2 | Corrected repelling rate (%) Stinkbugs (stink bugs; 0.5 h, 0.1 % strength): x (“x” for rates “not <0”)

Compound | repelling of stink bugs and other injurious insects to be exterminated (in words) (stink bugs) | Corrected repelling rate (%) Stinkbugs (stink bugs; [1]) | Corrected repelling rate (%) Honeybees (honeybees; [2]) [%] | further results
CC(=O)c1ccco1 [b-1, 2-acetylfuran] | – | – | – | Corrected repelling rate (%) Stinkbugs (stink bugs; [5]): <0%; Corrected repelling rate R (%) (honeybees; [6]): 60.3%
c1cnccn1 [y-57, pyrazine] | not repelling stink bugs | ∘ | 51.3 | –
c1ccc(-c2nc3ccccc3nc2-c2ccccc2)cc1 [y-84, 2,3-diphenylquinoxaline] | not repelling stink bugs | ∘ | 75.8 | –
Cc1cccc2ccccc12 [y-87, 1-methylnaphthalene] | not repelling stink bugs | ∘ | 74.3 | honeybee repelling rate (honeybees; Test 3, summary in text): ≥ 50%
CCCCCCCC1CCC(=O)O1 (stereo not drawn) [y-63, γ-undecalactone] | not repelling stink bugs | – | – | –
CC1(C)C2CCC1(C)C(O)C2 (stereo not drawn) [y-1, borneol] | not repelling stink bugs | ∘ | 80.0 | –
CCCCC(CC)COC(=O)c1ccccc1O (stereo not drawn) [y-22, 2-ethylhexyl salicylate] | – | ∘ | 23.7 | –
CCCCOC(C)=O [y-46, butyl acetate] | – | – | 40.2 | Corrected repelling rate (%) Stinkbugs (stink bugs; 0.5 h, 0.1 % strength): x (“x” for rates “not <0”)
CC(C)=CCO [e-8, 3-methyl-2-buten-1-ol] | – | ∘ | 30.4 | –
CCc1occc(=O)c1O [y-95, ethyl maltol] | – | ∘ | 27.6 | –
CCCCCC1CCCCC(=O)O1 (stereo not drawn) [y-66, 6-undecanolactone] | not repelling stink bugs | ∘ | 69.3 | –
CCCCCCCCCCCC(=O)OCC [y-41, ethyl laurate] | not repelling stink bugs | ∘ | 59.6 | –
CC(C)CCOC=O [x-11, isoamyl formate] | – | – | – | Corrected repelling rate (%) Stinkbugs (stink bugs; [3]): <0%; Corrected repelling rate R (%) (honeybees; [4]): 15.1%
Cc1ccc2ncccc2c1 [y-80, 6-methylquinoline] | – | – | 74.7 | –
CCCCCCC(C)C [p-3, 2-methyloctane, reference compound] | – | – | – | repelling effect / repelled behaviors of honeybees (in words) (honeybees; [7]): not observed at all; Corrected repelling rate R (%) (honeybees; [6]): <0%
CCCCOC(=O)CC(CC(=O)OCCCC)(OC(C)=O)C(=O)OCCCC [p-4, tributyl o-acetylcitrate, reference compound] | – | – | – | Corrected repelling rate R (%) (honeybees; [6]): <0%
CCCCCC(=O)O [y-72, hexanoic acid] | – | – | 89.4 | –
CCCC=O [y-15, butylaldehyde] | – | – | 51.0 | –
